{
  "source": "PubChem BioAssay (NCI)",
  "experiment_in_all_cases": "DTP human tumour cell line panel, 48 h",
  "key": {"NCI-H522 lung": {"system": "NCI-H522 lung"}, "HCT-15 colon": {"system": "HCT-15 colon"}, "U251 CNS": {"system": "U251 CNS"}, "MOLT-4 leukemia": {"system": "MOLT-4 leukemia"}, "NCI-H226 lung": {"system": "NCI-H226 lung"}, "OVCAR-4 ovarian": {"system": "OVCAR-4 ovarian"}, "UACC-257 melanoma": {"system": "UACC-257 melanoma"}, "SK-OV-3 ovarian": {"system": "SK-OV-3 ovarian"}, "SN12C renal": {"system": "SN12C renal"}, "MALME-3M melanoma": {"system": "MALME-3M melanoma"}, "DU-145 prostate": {"system": "DU-145 prostate"}, "M14 melanoma": {"system": "M14 melanoma"}, "OVCAR-5 ovarian": {"system": "OVCAR-5 ovarian"}, "ACHN renal": {"system": "ACHN renal"}, "UO-31 renal": {"system": "UO-31 renal"}, "SF-295 CNS": {"system": "SF-295 CNS"}, "KM12 colon": {"system": "KM12 colon"}, "CAKI-1 renal": {"system": "CAKI-1 renal"}, "UACC-62 melanoma": {"system": "UACC-62 melanoma"}, "CCRF-CEM leukemia": {"system": "CCRF-CEM leukemia"}, "HL-60(TB) leukemia": {"system": "HL-60(TB) leukemia"}, "A549 NSCLC": {"system": "A549 NSCLC"}, "SNB-19 CNS": {"system": "SNB-19 CNS"}, "K-562 leukemia": {"system": "K-562 leukemia"}, "EKVX NSCLC": {"system": "EKVX NSCLC"}, "MDA-MB-231 breast": {"system": "MDA-MB-231 breast"}, "A498 renal": {"system": "A498 renal"}, "SK-MEL-2 melanoma": {"system": "SK-MEL-2 melanoma"}},
  "note": "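Cells were grown in 96-well plates and exposed to each compound for 48 hours at five concentrations; endpoints were interpolated linearly between bracketing concentrations, or set to the highest concentration if not reached. GI50 is the concentration that inhibits growth by half. TGI: concentration producing complete growth inhibition.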",
  "data": [
    {"compound": "Cn1ccnc1C(=O)/C=C/C=C/c1ccc(C(=O)Nc2ccc(F)cc2)cc1", "values": [
      {"measurement": "GI50", "setting": "NCI-H522 lung", "value": 1.64, "unit": "µM"},
      {"measurement": "TGI", "setting": "NCI-H522 lung", "value": 16.8, "unit": "µM"},
      {"measurement": "GI50", "setting": "HCT-15 colon", "value": 0.568, "unit": "µM"},
      {"measurement": "TGI", "setting": "HCT-15 colon", "value": 1.25, "unit": "µM"},
      {"measurement": "GI50", "setting": "U251 CNS", "value": 0.911, "unit": "µM"},
      {"measurement": "TGI", "setting": "U251 CNS", "value": 8.2, "unit": "µM"},
      {"measurement": "GI50", "setting": "MOLT-4 leukemia", "value": 1.02, "unit": "µM"},
      {"measurement": "TGI", "setting": "MOLT-4 leukemia", "value": "> 33.3", "unit": "µM"},
      {"measurement": "GI50", "setting": "NCI-H226 lung", "value": 2.18, "unit": "µM"},
      {"measurement": "TGI", "setting": "NCI-H226 lung", "value": 12.8, "unit": "µM"},
      {"measurement": "GI50", "setting": "OVCAR-4 ovarian", "value": 6.06, "unit": "µM"},
      {"measurement": "TGI", "setting": "OVCAR-4 ovarian", "value": "> 33.3", "unit": "µM"},
      {"measurement": "GI50", "setting": "UACC-257 melanoma", "value": 14.1, "unit": "µM"},
      {"measurement": "TGI", "setting": "UACC-257 melanoma", "value": "> 33.3", "unit": "µM"},
      {"measurement": "GI50", "setting": "SK-OV-3 ovarian", "value": 11, "unit": "µM"},
      {"measurement": "TGI", "setting": "SK-OV-3 ovarian", "value": "> 33.3", "unit": "µM"},
      {"measurement": "GI50", "setting": "SN12C renal", "value": 1.54, "unit": "µM"},
      {"measurement": "TGI", "setting": "SN12C renal", "value": 14.2, "unit": "µM"},
      {"measurement": "GI50", "setting": "MALME-3M melanoma", "value": 1.29, "unit": "µM"},
      {"measurement": "TGI", "setting": "MALME-3M melanoma", "value": 6.58, "unit": "µM"},
      {"measurement": "GI50", "setting": "DU-145 prostate", "value": 1.52, "unit": "µM"},
      {"measurement": "TGI", "setting": "DU-145 prostate", "value": "> 33.3", "unit": "µM"},
      {"measurement": "GI50", "setting": "M14 melanoma", "value": 1.93, "unit": "µM"},
      {"measurement": "TGI", "setting": "M14 melanoma", "value": 28.7, "unit": "µM"},
      {"measurement": "GI50", "setting": "OVCAR-5 ovarian", "value": 1.73, "unit": "µM"},
      {"measurement": "TGI", "setting": "OVCAR-5 ovarian", "value": 16.8, "unit": "µM"},
      {"measurement": "GI50", "setting": "ACHN renal", "value": 1.15, "unit": "µM"},
      {"measurement": "TGI", "setting": "ACHN renal", "value": 5.54, "unit": "µM"},
      {"measurement": "GI50", "setting": "UO-31 renal", "value": 1.42, "unit": "µM"},
      {"measurement": "TGI", "setting": "UO-31 renal", "value": 7.16, "unit": "µM"},
      {"measurement": "GI50", "setting": "SF-295 CNS", "value": 9.49, "unit": "µM"},
      {"measurement": "TGI", "setting": "SF-295 CNS", "value": "> 33.3", "unit": "µM"},
      {"measurement": "GI50", "setting": "KM12 colon", "value": 6.79, "unit": "µM"},
      {"measurement": "TGI", "setting": "KM12 colon", "value": "> 33.3", "unit": "µM"},
      {"measurement": "GI50", "setting": "CAKI-1 renal", "value": 3.22, "unit": "µM"},
      {"measurement": "TGI", "setting": "CAKI-1 renal", "value": "> 33.3", "unit": "µM"},
      {"measurement": "GI50", "setting": "UACC-62 melanoma", "value": 3.48, "unit": "µM"},
      {"measurement": "TGI", "setting": "UACC-62 melanoma", "value": 15.4, "unit": "µM"},
      {"measurement": "GI50", "setting": "CCRF-CEM leukemia", "value": 0.731, "unit": "µM"},
      {"measurement": "TGI", "setting": "CCRF-CEM leukemia", "value": "> 33.3", "unit": "µM"},
      {"measurement": "GI50", "setting": "HL-60(TB) leukemia", "value": 0.956, "unit": "µM"},
      {"measurement": "TGI", "setting": "HL-60(TB) leukemia", "value": 7.2, "unit": "µM"},
      {"measurement": "GI50", "setting": "A549 NSCLC", "value": 5.36, "unit": "µM"},
      {"measurement": "TGI", "setting": "A549 NSCLC", "value": "> 33.3", "unit": "µM"},
      {"measurement": "GI50", "setting": "SNB-19 CNS", "value": 2.05, "unit": "µM"},
      {"measurement": "TGI", "setting": "SNB-19 CNS", "value": "> 33.3", "unit": "µM"},
      {"measurement": "GI50", "setting": "K-562 leukemia", "value": 0.828, "unit": "µM"},
      {"measurement": "TGI", "setting": "K-562 leukemia", "value": "> 33.3", "unit": "µM"},
      {"measurement": "GI50", "setting": "EKVX NSCLC", "value": 1.26, "unit": "µM"},
      {"measurement": "TGI", "setting": "EKVX NSCLC", "value": 12.1, "unit": "µM"},
      {"measurement": "GI50", "setting": "MDA-MB-231 breast", "value": 1.41, "unit": "µM"},
      {"measurement": "TGI", "setting": "MDA-MB-231 breast", "value": "> 33.3", "unit": "µM"},
      {"measurement": "GI50", "setting": "A498 renal", "value": 2.6, "unit": "µM"},
      {"measurement": "TGI", "setting": "A498 renal", "value": 26.9, "unit": "µM"},
      {"measurement": "GI50", "setting": "SK-MEL-2 melanoma", "value": 17.9, "unit": "µM"},
      {"measurement": "TGI", "setting": "SK-MEL-2 melanoma", "value": "> 33.3", "unit": "µM"}
    ]}
  ]
}
